Data: paper PMC6348446 (Journal of Medicinal Chemistry, 2018)
Like-named read-outs stand apart in the source and are kept apart here.

Experiments:
BRD7 = biological target: T1, BRD7 (Homo sapiens, UniProt Q9NPI1); assay: Western blot of BRD7 levels in HeLa cells after compound treatment; type: cell-based; conditions: 1 μM compound; for BRD7 degradation: HeLa cells
T1 construct: Western blot analysis of BRD9 and BRD7 levels after treatment of HeLa cells; endogenous in cells; host or cells: HeLa
T1 sequence (Q9NPI1 1-651): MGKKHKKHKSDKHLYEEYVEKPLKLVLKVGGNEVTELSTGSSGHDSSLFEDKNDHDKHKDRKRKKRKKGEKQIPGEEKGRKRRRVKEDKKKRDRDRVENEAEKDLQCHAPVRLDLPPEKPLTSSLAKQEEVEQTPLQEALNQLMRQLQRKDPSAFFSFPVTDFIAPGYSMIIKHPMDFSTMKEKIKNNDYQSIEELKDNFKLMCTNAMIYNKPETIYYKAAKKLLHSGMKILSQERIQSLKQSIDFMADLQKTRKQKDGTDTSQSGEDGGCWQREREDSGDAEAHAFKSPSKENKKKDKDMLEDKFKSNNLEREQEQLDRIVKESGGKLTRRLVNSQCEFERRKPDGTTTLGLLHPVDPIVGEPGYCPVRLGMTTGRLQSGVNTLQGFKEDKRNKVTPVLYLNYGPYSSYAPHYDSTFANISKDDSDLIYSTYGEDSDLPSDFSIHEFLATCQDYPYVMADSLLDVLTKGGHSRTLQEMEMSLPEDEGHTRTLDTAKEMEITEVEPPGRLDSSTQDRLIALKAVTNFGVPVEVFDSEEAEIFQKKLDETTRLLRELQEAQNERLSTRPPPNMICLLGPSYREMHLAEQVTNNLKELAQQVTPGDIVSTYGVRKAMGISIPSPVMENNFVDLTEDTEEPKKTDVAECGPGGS
Description: HeLa and Hek293 cells were seeded at either 0.3 × 10^6 or 0.5 × 10^6 cells per well in 6-well plate in 2 mL of medium. At 80% confluency, cells were treated with compounds at the desired concentration, with final DMSO concentration of 0.1% v/v. Cells were incubated at 37 °C and 5% of CO2 for the desired time before harvesting. For protein extraction from adherent cells, cells were washed twice with DPBS (Gibco) and lysed with RIPA buffer (Sigma-Aldrich), supplemented with cOmplete Mini EDTA-free protease inhibitor cocktail (Roche). Insoluble material was removed by centrifugation at 14 000 rpm for 15 min at 4 °C. Supernatant was collected and protein concentration was quantified by Bradford assay (Thermo Scientific no. 23200, mean of two replicates). For RI-1 cells, (1–1.5) × 10^6 cells/mL were seeded in 6-well plate in 2 mL of medium. The day after, cells were treated with compounds at the desired concentration, with final DMSO concentration of 0.1% v/v. Before harvesting, cells were incubated at 37 °C and 5% CO2 for the desired time. Cells were washed twice with DPBS (Gibco) and lysed with RIPA buffer (Sigma-Aldrich), supplemented with cOmplete Mini EDTA-free protease inhibitor cocktail (Roche). Lysates were sonicated (10 s) and centrifuged at 14 000 rpm for 20 min at 4 °C. Supernatant was collected, and protein concentration was quantified by Bradford assay (mean of two replicates). For EOL-1 and A-204 cell line, 20 000 cells were seeded in 300 μL per well in a 24-well plate and incubated at 37 °C overnight. Compounds were added from DMSO stock solution using a digital dispenser D300 (Tecan), normalizing for added DMSO, and cells were incubated at 37 °C for 18 h. Medium was removed, and cells were washed with PBS and lysed in 80 μL of lysis buffer (1% Triton, 350 mM KCl, 10 mM Tris, pH 7,4, phosphatase-protease inhibitor cocktail (Thermo Scientific no. 1861281), 10 mM DTT, Benzonase 0.5 μL/ml (Novagen no. 70746 10KU, 25 U/μL)) for 30 min on ice before insoluble debris was pelleted by centrifugation.
Proteins were resolved by SDS–PAGE on NuPage 4–12% Bis-Tris Midi Gel (Invitrogen) and transferred to Amersham Protran 0.45 NC nitrocellulose membrane (GE Healthcare) using wet transfer. The membrane was blocked with 5% w/v milk in Tris-buffered saline (TBS) with 0.1% w/v Tween-20. The following primary antibodies at the given concentration were used: anti β-actin (Cell Signaling Technology, 4970S, 13E5) 1:2000, anti-Brd9 (Bethyl A303-781A) 1:1000, anti-Brd7 (Bethyl A302-304A) 1:1000, VHL rabbit Ab (Cell Signaling Technology, no. 68547S) 1:1000, anti-CRBN (Novus Bio, NBP 1-9-1810) 1:1000, anti-actin hFAB rhodamine antibody, Bio-Rad, no. 12004164. Following incubation with horseradish peroxidase-conjugated secondary antibody (Cell Signaling Technology) or IRDye secondary antibody (Licor), bands were developed using Amersham ECL Prime Western blotting detection kit on Amersham Hyperfilm ECL film (Amersham) or ChemiDoc imaging system (Bio-Rad). ImageJ software was used for band quantification, and the last was reported as relative amount as ratio of each protein band relative to the lane’s loading control. Then the values obtained were normalized to 0.1% DMSO vehicle control. Alternatively, protein levels were determined on a WES capillary electrophoresis instrument (Proteinsimple) using a BRD9 antibody (Bethyl A303-781A) and a GAPDH antibody (Abcam no. ab9485) for normalization. DC50 and half-lives were determined by assuming a linear model between the two data points across 50% protein level mark.

BRD9 = biological target: T2, BRD9 (Homo sapiens, UniProt Q9H8M2); assay: Western blot of BRD9 levels in HeLa cells after compound treatment; type: cell-based; conditions: 1 μM compound; for remaining activity at 1 µM: Table 2, % of total protein remaining relative to 0.1% DMSO vehicle, HeLa cell lysates; for BRD9 degradation: HeLa cells
T2 construct: Western blot analysis of BRD9 and BRD7 levels after treatment of HeLa cells; endogenous in cells; host or cells: HeLa
T2 sequence (Q9H8M2 1-597): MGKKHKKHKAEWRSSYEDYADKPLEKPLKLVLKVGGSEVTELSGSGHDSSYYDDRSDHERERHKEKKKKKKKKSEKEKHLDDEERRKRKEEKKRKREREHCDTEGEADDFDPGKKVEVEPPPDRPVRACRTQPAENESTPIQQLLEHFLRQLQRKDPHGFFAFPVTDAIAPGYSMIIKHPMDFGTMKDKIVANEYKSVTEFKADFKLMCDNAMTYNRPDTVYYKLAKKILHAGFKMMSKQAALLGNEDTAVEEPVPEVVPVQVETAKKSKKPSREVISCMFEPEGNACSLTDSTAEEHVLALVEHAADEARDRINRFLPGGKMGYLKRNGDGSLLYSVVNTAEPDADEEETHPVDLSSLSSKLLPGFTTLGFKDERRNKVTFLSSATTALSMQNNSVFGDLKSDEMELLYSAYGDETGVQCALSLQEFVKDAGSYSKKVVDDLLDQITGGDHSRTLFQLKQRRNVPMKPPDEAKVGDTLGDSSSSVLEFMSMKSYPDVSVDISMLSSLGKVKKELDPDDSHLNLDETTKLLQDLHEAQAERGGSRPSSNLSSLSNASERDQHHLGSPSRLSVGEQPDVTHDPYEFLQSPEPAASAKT

| BRD7 degradation (BRD7; 4 h) | BRD7 degradation (BRD7; 16 h) | remaining activity at 1 µM (BRD9; 16 h, read-out: BRD9 16 h (%)) | BRD9 degradation (BRD9; 4 h) | BRD9 degradation (BRD9; 16 h) | remaining activity at 1 µM (BRD7; 4 h, Table 2, % of total protein remaining relative to 0.1% DMSO vehicle, HeLa cell lysates, read-out: BRD7 4 h (%)) | remaining activity at 1 µM (BRD9; 4 h, read-out: BRD9 4 h (%)) | SMILES |
| --- | --- | --- | --- | --- | --- | --- | --- |
| at most 20% | ≤ 30% | 89% | at most 20% | ≤ 30% | – | – | COc1cc(-c2cn(C)c(=O)c3cnccc23)cc(OC)c1CN1CCN(CCOCCOCC(=O)N[C@H](C(=O)N2C[C@H](O)C[C@H]2C(=O)NCc2ccc(-c3scnc3C)cc2)C(C)(C)C)CC1 [Compound 5, (2S,4R)-1-((S)-2-(2-(2-(2-(4-(2,6-Dimethoxy-4-(2-methyl-1-oxo-1,2-dihydro-2,7-naphthyridin-4-yl)benzyl)piperazin-1-yl)ethoxy)ethoxy)acetamido)-3,3-dimethylbutanoyl)-4-hydroxy-N-(4-(4-methylthiazol-5-yl)benzyl)pyrrolidine-2-carboxamide] |
| – | – | – | – | – | 97% | 14% | COc1cc(-c2cn(C)c(=O)c3cnccc23)cc(OC)c1CN1CCN(CCOCCOCCOc2cc(-c3scnc3C)ccc2CNC(=O)[C@@H]2C[C@@H](O)CN2C(=O)[C@@H](NC(=O)C2(F)CC2)C(C)(C)C)CC1 [Compound 26, (2S,4R)-N-(2-(2-(2-(2-(4-(2,6-Dimethoxy-4-(2-methyl-1-oxo-1,2-dihydro-2,7-naphthyridin-4-yl)benzyl)piperazin-1-yl)ethoxy)ethoxy)ethoxy)-4-(4-methylthiazol-5-yl)benzyl)-1-((S)-2-(1-fluorocyclopropane-1-carboxamido)-3,3-dimethylbutanoyl)-4-hydroxypyrrolidine-2-carboxamide] |
